# Measured values published in US8591892B2, “FTY720 increases CD74 expression and sensitizes cancer cells to anti-CD74 antibody-mediated cell death” (The Ohio State University, priority 2011, dated 2013).
# Tests used:
# [1] = tested on: primary tumor cells from MCL patients; test: Cell viability by annexin-V/PI staining and flow cytometry; type: cell-based, human; conditions: six MCL patients, 24 hours; FTY720 2.5 μM, immobilized milatuzumab 5 μg/ml
# Procedure: FIG. 4. FTY720 sensitizes MCL cell lines and primary patient tumor cells to milatuzumab-mediated cytotoxicity. (A) Four MCL cell lines and primary cells from 6 patients were treated with FTY720 and/or milatuzumab plus cross-linking antibodies at the indicated concentrations. (B) Patient characteristics. (C) Individual patient responses. (D) Representative histograms summarizing patient responses. Cell death was determined by annexin V/PI staining and flow cytometry at 24 hours. Data are shown as the percentage of annexin V−/PI− cells (live cells) and are normalized to untreated controls.
# Primary tumor cells were isolated from the peripheral blood/lymph nodes of patients with MCL. All patients studied were diagnosed with MCL according to the World Health Organization (WHO) classification of tumors (Swerdlow, 2008, World Health Organization Classification of Tumours of Haematopoetic and Lymphoid Tissues (ed 4th ed.) Lyon, France, International Agency on Research for Cancer). All samples contained at least 85% of CD19^+/CD20^+ B cells detected by flow cytometry. […]
# To assess lysosomal volume, FTY720 treated cells were incubated with LYSOTRACKER™ green DND-26. […] Cell viability was measured at 24 hours by dual staining with annexin-V FITC and propidium iodide (PI). A total of 10,000 events were collected and analyzed using WinMDI. […]
# [2] = tested on: Jeko cells engrafted in SCID mice; test: Preclinical model of human MCL in SCID mice, survival; type: in vivo, mouse; conditions: n=10/group, from day 15; FTY720 5 mg/kg i.p. daily 2 weeks; antibodies 15 mg/kg i.p. every three days
# Procedure: Evaluation of in vivo therapeutic activity of FTY720 and milatuzumab in the preclinical MCL model. SCID mice were injected i.v. with 40×10^6 JeKo cells and observed daily for signs of tumor burden.
# Six to eight-week old female SCID mice (cb17 scid/scid) were purchased from Taconic Farms (Hudson, N.Y.) and maintained in pathogen-free, isolation cages. All animals were depleted of murine NK cells with intra-peritoneal (i.p.) injections of 0.2 mg of rat anti-mouse interleukin-2 receptor β monoclonal antibody (TMβ1) 1 day prior to engraftment with human tumor cell lines and then every week. Forty-eight hours post intravenous injection of 40×10^6 Jeko cells via tail vein, 50 mice were randomly distributed into 10 cages. Animals in groups of ten were treated starting at day 15 after engraftment. […] The third group was treated with FTY720 (5 mg/kg) every day for 2 weeks via i.p. The fourth group received milatuzumab (15 mg/kg) every three days, via i.p. injection. The fifth group received the combination of FTY720 and milatuzumab. Animals were monitored daily for signs of tumor burden, including hind limb paralysis, respiratory distress, weight loss, ruffled coat, and distended abdomen. Body weight was measured weekly for the first 3 weeks and then daily. […]
# [3] = single agents, same dosage and delivery schedule; cited from earlier work
# [4] = tested on: Panc-1; test: Flow cytometry of CD74, HLA-DR, CEACAM5 with directly labeled MAbs, with and without IFN-γ; type: cell-based
# Procedure: (§1) Expression of CD74, HLA-DR, and carcinoembryonic antigen (CEACAM5) was determined in untreated cells and cells exposed to 200 U of IFN-γ for 48 h by flow cytometry. Cells were stained with directly labeled MAbs in comparison to a directly labeled human IgG control. Antibodies were labeled using ALEXA FLUOR® 488 (Invitrogen, Carlsbad, Calif.). For determination of cytoplasmic antigen expression, cells were permeabilized prior to staining using the BD CYTOFIX/CYTOPERM™ kit (BD Biosciences, San Jose, Calif.).
# [5] = tested on: U87; test: as above; type: cell-based
# Procedure: as §1
# [6] = tested on: HT29; test: as above; type: cell-based
# Procedure: as §1
# [7] = tested on: Lovo; test: as above; type: cell-based
# Procedure: as §1
# [8] = tested on: CAG; test: as above; type: cell-based
# Procedure: as §1
substance,measurement,setting,value
milatuzumab: fully humanized monoclonal antibody specific for CD74,average cell death,[1],50%
same,median survival,[2],33.5 days
same,weight loss or other side effects,[3],did not cause any observed weight loss or other significant side effects
same,% change of cell surface expression with IFNγ,[4]; Panc-1,9.4%
same,% change of cytoplasmic expression with IFNγ,[4]; Panc-1,208.7%
same,Cell surface expression (staining with directly labeled MAb),"[4]; Panc-1 + IFNγ 200 U, 48 h",4.9
same,Cell surface expression (staining with directly labeled MAb),"[4]; Panc-1, without IFN-γ",4.5
same,% change of cell surface expression with IFNγ,[5]; U87,75.6%
same,% change of cytoplasmic expression with IFNγ,[5]; U87,158.8%
same,Cell surface expression (staining with directly labeled MAb),"[5]; U87 + IFNγ 200 U, 48 h",9.5
same,Cell surface expression (staining with directly labeled MAb),"[5]; U87, without IFN-γ",5.4
same,% change of cell surface expression with IFNγ,[6]; HT29,141.1%
same,% change of cytoplasmic expression with IFNγ,[6]; HT29,1766.6%
same,Cell surface expression (staining with directly labeled MAb),"[6]; HT29 + IFNγ 200 U, 48 h",8.3
same,Cell surface expression (staining with directly labeled MAb),"[6]; HT29, without IFN-γ",3.4
same,% change of cell surface expression with IFNγ,[7]; Lovo,173.7%
same,% change of cytoplasmic expression with IFNγ,[7]; Lovo,756.0%
same,Cell surface expression (staining with directly labeled MAb),"[7]; Lovo + IFNγ 200 U, 48 h",9.2
same,Cell surface expression (staining with directly labeled MAb),"[7]; Lovo, without IFN-γ",3.4
same,% change of cell surface expression with IFNγ,[8]; CAG,−5.4%
same,% change of cytoplasmic expression with IFNγ,[8]; CAG,19.8%
same,Cell surface expression (staining with directly labeled MAb),"[8]; CAG + IFNγ 200 U, 48 h",39.2
same,Cell surface expression (staining with directly labeled MAb),"[8]; CAG, without IFN-γ",41.5
